Reference: patent US7838511B2, “Compositions and methods for treating, preventing and/or ameliorating cancers, the onset of cancers or the symptoms of cancers” (The Board of Regents of the University of Texas System, priority 2003, dated 2010)

Key:
[1] = tested on: MCF-7 breast cancer cells; experiment: MCF-7 breast cancer cell growth / cell number (MTT assay); type: cell-based; conditions: for Cell number (% control): mean ± SEM
Experimental: Using MCF-7 breast cancer cells grown in culture, a dose-response to aspirin (1.25 to 20 mM) was performed initially. After 48 hours of exposure to the various aspirin (acetyl salicylic acid, ASA) concentrations, mitochondrial 3-(4,5-dimethylthiazol-2-yl)-2,5-diphenyltetrazolium bromide (MTT) assays were performed. The MTT assay produces a measure of cell number and is used to monitor growth or inhibition of growth of the MCF-F breast cancer cells, i.e., measure the relative growth inhibitor activity of the compositions.
To test the relative growth inhibitor activity of phospholipid associated aspirin (PC-ASA) preparations, PC-ASA preparations were made having ASA concentrations that gave no more than 50% inhibition of growth (e.g., 2.5 and 5 mM) as shown in FIG. 2. In this example and in all subsequent examples, cell growth was assessed by measuring mitochondrial 3-(4,5-dimethylthiazol-2-yl)-2,5-diphenyltetrazolium bromide (MTT) activity. Those concentration of ASA were chosen so that any PC effects could be readily observed. After the preparation of the PC-ASA preparation, MCF-7 breast cancer cells were exposed for 48 hours to either ASA or a PC-ASA having the same ASA concentration.
MCF-7 breast cancer cells were grown in culture and exposed to aspirin (acetyl salicylic acid, ASA) and PC-ASA at equimolar concentrations. An assay was performed to estimate cell number.

[2] = tested on: SW-480 colon cancer cell line; experiment: SW-480 colon cancer cell number; type: cell-based; conditions: mean ± SEM
Experimental: (§1) PC-NSAIDs were also tested on another type of cancer, a colon cancer cell line, SW-480.

[3] = tested on: SW-480 colon cancer cell line; experiment: SW-480 colon cancer cell DNA synthesis; type: cell-based; conditions: mean ± SEM
Experimental: as §1

[4] = tested on: MCF-7 breast cancer cells; experiment: MCF-7 DNA synthesis (thymidine incorporation into cellular DNA); type: cell-based; conditions: 5 mM, mean ± SEM
Experimental: Studies were further performed to determine the mechanism by which ASA and PC-ASA reduced cell number. MCF-7 cells were again grown in the absence or presence of ASA and PC-ASA, and cell proliferation was assessed by measurement of titriated thymidine incorporation into cellular DNA.

[5] = tested on: Leiomyosarcoma of the bladder; experiment: Bladder cancer (leiomyosarcoma) in a cat, ultrasonographic follow-up; type: in vivo, domestic cat; conditions: assessed by ultrasound
Experimental: To confirm that the PC-NSAIDs also have anti-cancer activity in vivo, a study has been performed on a domestic cat. As summarized in Table 3, the animal was diagnosed in December of 2003 with Leiomyosarcoma of the bladder, a particularly aggressive form of cancer.
The cat was treated surgically for resection of the tumor and was then placed on standard Vincristine chemotherapy for three weeks. […] Eventually, the tumor began to grow again and a treatment of lecithin combined with an NSAID, piroxicam, was begun. […] The cat is continuing to be treated with PC-piroxicam as of this filing.

[6] = tested on: MCF-7 cells; experiment: Lactate dehydrogenase (LDH) release (necrosis) of MCF-7 cells; type: cell-based; conditions: 0.6 mM, 5 hours; FIG. 4
Experimental: The growth inhibitor activity of the PC-ASA preparations on MCF-7 cells could be through increased apoptosis or necrosis or inhibition of cell proliferation. To differentiate between the first two possibilities, the effect of the PC-ASA preparations on release of the cytosolic enzyme lactate dehydrogenase (LDH) as a measure of necrosis were performed. For this study, MCF-7 cells were exposed to 2.5 and 5 mM ASA or PC-ASA preparations for 48 hours, as before. The media was collected and assayed for LDH activity (the assay is a kit available from Sigma Chemical Co., St. Louis, Mo.). To act as a positive control, some cells were exposed to a bile acid, 0.6 mM sodium deoxycholate (DOC), for 5 hours before LDH assay. […] Yet the ASA and PC-ASA preparations clearly reduce the number of MCF-7 cells at these concentrations. The most likely explanation for these findings is that the NSAIDs are inducing apoptosis rather than necrosis. This possibility is consistent with reports in the literature (see, e.g., Xiaojun L, Xie W, Reed D, Bradshaw W S, Simmons D L. Nonsteroidal antiinflammatory drugs cause apoptosis and induce cyclooxygenases in chicken embryo fibroblasts. Proc Natl Acad Sci USA 1995; 92:7961-7965.). Another possibility is that the PC-NSAID act by inhibiting cell proliferation.

CC(=O)Oc1ccccc1C(=O)O [ASA, acetyl salicylic acid]
inhibition of growth ([1]; ASA 2.5 and 5 mM, MTT, FIG. 2): no more than 50% | Cell number (% control) ([1]; MCF-7, 5 mM): 55 ± 3 % Control | ASA concentration with inhibitor effect on growth of the cells ([1]; MTT assay, 48 hours exposure, dose-response 1.25 to 20 mM, FIG. 2): ≥ 2.5 mM | Cell number (% control) ([2]; 5 mM): 68 ± 3 % control | DNA synthesis (% control) ([3]; 5 mM): 102 ± 4 % control | DNA synthesis (% control) [4]: 85 ± 8 % Control

CC(C)Cc1ccc(C(C)C(=O)O)cc1 (stereo not drawn) [IBU, ibuprofen]
Cell number (% control) ([2]; 1 mM): 81 ± 2 % control | DNA synthesis (% control) ([3]; 1 mM): 79 ± 1 % control

CC[C@]1(O)C[C@H]2CN(CCc3c([nH]c4ccccc34)[C@@](C(=O)OC)(c3cc4c(cc3OC)N(C=O)[C@H]3[C@@](O)(C(=O)OC)[C@H](OC(C)=O)[C@]5(CC)C=CCN6CC[C@]43[C@@H]65)C2)C1 [Vincristine]
effect on tumor growth (in words) [5]: did not stop the remaining tumor growth

sodium deoxycholate [DOC]
LDH release (necrosis), positive control [6]: caused the release of cellular LDH

phosphatidylcholine [PC]
inhibiting the growth of the breast cancer cells (in words) ([1]; 2.5 and 5 mM, 48 hours, MTT, FIG. 3): did not adversely affect the growth of the cells | inhibiting the growth of the breast cancer cells (in words, Table 1) ([1]; MCF-7, 5 mM, equimolar): not effective at inhibiting the growth of the cells | Cell number (% control) ([1]; MCF-7, 5 mM): 114 ± 3 % Control | Cell number (% control) ([2]; 1 mM): 106 ± 13 % control | Cell number (% control) ([2]; 5 mM): 106 ± 7 % control | DNA synthesis (% control) ([3]; 1 mM): 97 ± 5 % control | DNA synthesis (% control) ([3]; 5 mM): 65 ± 4 % control | DNA synthesis (% control) [4]: 41 ± 1 % Control
